{
  "source": "patent US20080269526A1",
  "about": "“METHODS OF MAKING AN […]” (SAIC […], IP B.V., priority 2004, published 2008)",
  "assay": "Solubility of K Rimar in water",
  "conditions": "20° C. (RT)",
  "from_the_text": "The solubility of the potassium salt of perfluorobutanesulfonic acid, K Rimar, is described in Table 2.",
  "data": [
    {"smiles": "O=S(=O)([O-])C(F)(F)C(F)(F)C(F)(F)C(F)(F)F.[K+]", "note": "[K Rimar, Perfluorobutane sulfonate, potassium salt]", "values": [
      {"measurement": "Concentration at which K Rimar is soluble", "result": "less than 0.5 g"}
    ]}
  ]
}
